Measured values as given in patent US8518946B2, “Salts of (R)-7-[3-amino-4-(2,4,5-trifluorophenyl)butanoyl]-3-trifluoromethyl-5,6,7,8-tetrahydroimidazo[1,5-a] pyrazine-1-carboxylic acid, preparation method and medical use thereof” (Jiangsu Hengrui Medicine Co., Ltd., priority 2009, dated 2013).
Read-outs that look alike come from different tables or passages of the source.

Columns and labels:
normal ICR mice = assay: Hypoglycemic effect, oral glucose tolerance in normal ICR mice; type: in vivo; settings: 10 mg/kg by gavage, glucose 4 g/kg 15 minutes after administration
Procedure: To observe the effects on oral glucose tolerance of the compounds of Example 1-4 and Example 8-12 in normal ICR mice (SINO-BRITSH SIPPR/BK LAB.ANIMAL LTD., CO), the hypoglycemic effects in vivo have been evaluated using blood-glucose meter to measure and analyze the sugar content of the samples at different time points during 2 hours. The samples were taken from the mouse's tail.
The administration dose was 10 mg/kg, and the blank was administered with water. Both groups contained 5% DMSO.
The mice were administered by gavage. 4 g/kg of 10% glucose solution was administered (0.8 mL to each mice) 15 minutes after administration.
The mice were administered according to above dose (the blank group was administrated with 5% DMSO aqueous solution) and the blood sugar value was measured (−15 minutes).
15 minutes after administration, the mice were administered of 4 g/kg of 20% glucose solution and the values of blood sugar were tested by Roche ACCU-CHEK at 0, 15, 30, 45, 60, 120 minutes.

DPP-IX = biological target: T1, DPP-IX (Homo sapiens, UniProt Q86TI2); assay: DPP-IX inhibition, Promega DPPIV-Glo Protease Assay; type: biochemical; settings: read-out: IC50 DPP9
T1 construct: purchased Bioscience 80090
T1 sequence (Q86TI2 whole entry): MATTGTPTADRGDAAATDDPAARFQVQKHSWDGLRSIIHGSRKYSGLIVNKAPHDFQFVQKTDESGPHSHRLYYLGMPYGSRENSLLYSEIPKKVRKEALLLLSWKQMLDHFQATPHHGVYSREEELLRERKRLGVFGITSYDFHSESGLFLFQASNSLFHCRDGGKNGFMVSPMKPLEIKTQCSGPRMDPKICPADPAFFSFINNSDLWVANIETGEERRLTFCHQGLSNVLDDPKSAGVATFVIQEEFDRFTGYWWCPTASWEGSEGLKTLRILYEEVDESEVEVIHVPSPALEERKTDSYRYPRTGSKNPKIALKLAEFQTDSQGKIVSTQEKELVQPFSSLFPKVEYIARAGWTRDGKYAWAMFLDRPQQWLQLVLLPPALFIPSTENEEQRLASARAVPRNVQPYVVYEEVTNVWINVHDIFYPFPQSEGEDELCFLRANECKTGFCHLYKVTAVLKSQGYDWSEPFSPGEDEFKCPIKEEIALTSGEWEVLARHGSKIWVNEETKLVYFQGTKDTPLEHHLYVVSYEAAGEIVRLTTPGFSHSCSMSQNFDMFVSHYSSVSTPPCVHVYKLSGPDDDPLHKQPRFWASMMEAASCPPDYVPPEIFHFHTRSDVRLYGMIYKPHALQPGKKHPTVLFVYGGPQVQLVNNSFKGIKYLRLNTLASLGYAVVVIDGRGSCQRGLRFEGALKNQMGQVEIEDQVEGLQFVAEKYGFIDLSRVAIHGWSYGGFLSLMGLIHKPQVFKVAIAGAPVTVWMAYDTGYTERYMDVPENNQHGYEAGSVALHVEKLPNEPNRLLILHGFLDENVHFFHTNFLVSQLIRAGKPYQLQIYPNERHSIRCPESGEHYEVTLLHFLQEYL
Procedure: (§1) The compounds of the present invention were tested to determine their DPP-IV, DPP-VIII, DPP-IX inhibition activity according to the following methods. The half inhibition concentrations IC50 (the concentration of the test compound showing 50% inhibition to the enzyme activity) of each compound were determined by reaction test and calculation of the mixture of fixed amounts of enzyme and substrate with several different concentrations of the test compounds.
(§2) The compounds of the present invention were tested to determine the DPP-IV, DPP-VIII, DPP-IX inhibition activity in the following tests using Promega DPPIV-Glo™ Protease Assay (Cat No. G8350/G8351) Kit, wherein:
c. DPP-IX enzyme bought from Bioscience, Catalog no. 80090.
(§3) The preparation procedure of the conventional reagent such as DPPIV-Glo buffer, luciferin reagents needed in the test and the detail operation of the test can refer to the specifications of the kits. The assay was carried out as following steps:
(§4) The tested compounds were dissolved in DMSO to prepare a series of different concentrations of the test compound solution. DPPIV-Glo buffer and the freezing luciferin detection reagent were equilibrated to room temperature. The luciferin detection reagent was dissolved in moderate buffer in a brown flask to form a solution. Then DPP-IV-Glo. was dissolved in ultrapure water to give the appropriate concentration. The substrate solution and the luciferin detection reagent solution were mixed sufficiently in an appropriate ratio (the ratio of the invention is 1:49), and the mixture was layed at room temperature for 30-60 minutes. Tris buffer (2 mM, pH 8.0), the test compounds and DPP-IV (DPP-VIII or DPP-IX) were mixed and then transferred to a 96-well plate. Each test contains double-well of three-well control. The same volume of DMSO was added to the negative control and blank control. Then the 96-well plate was added with mixed solution of luciferin detection reagent and substrate to initiate the reaction. The 96-wells plate was incubated at room temperature on a plate shaker for 40 minutes after sealed. The strength of the fluorescent signal in each well was determined by microplate reader and the inhibition rate to the enzyme of the compound at this concentration was calculated by the formula as following: inhibitory rate: IR=[1−(S−B)/(N−B)]*100% • S: value of the sample • B: value of the blank control • N: value of the negative control
(§5) IC50 of the test compounds can be calculated by the inhibition rate at different concentration.

DPP-VIII = biological target: T2, DPP-VIII (Homo sapiens, UniProt Q6V1X1); assay: DPP-VIII inhibition, Promega DPPIV-Glo Protease Assay; type: biochemical; settings: read-out: IC50 DPP8
T2 construct: purchased Bioscience 80080
T2 sequence (Q6V1X1 whole entry): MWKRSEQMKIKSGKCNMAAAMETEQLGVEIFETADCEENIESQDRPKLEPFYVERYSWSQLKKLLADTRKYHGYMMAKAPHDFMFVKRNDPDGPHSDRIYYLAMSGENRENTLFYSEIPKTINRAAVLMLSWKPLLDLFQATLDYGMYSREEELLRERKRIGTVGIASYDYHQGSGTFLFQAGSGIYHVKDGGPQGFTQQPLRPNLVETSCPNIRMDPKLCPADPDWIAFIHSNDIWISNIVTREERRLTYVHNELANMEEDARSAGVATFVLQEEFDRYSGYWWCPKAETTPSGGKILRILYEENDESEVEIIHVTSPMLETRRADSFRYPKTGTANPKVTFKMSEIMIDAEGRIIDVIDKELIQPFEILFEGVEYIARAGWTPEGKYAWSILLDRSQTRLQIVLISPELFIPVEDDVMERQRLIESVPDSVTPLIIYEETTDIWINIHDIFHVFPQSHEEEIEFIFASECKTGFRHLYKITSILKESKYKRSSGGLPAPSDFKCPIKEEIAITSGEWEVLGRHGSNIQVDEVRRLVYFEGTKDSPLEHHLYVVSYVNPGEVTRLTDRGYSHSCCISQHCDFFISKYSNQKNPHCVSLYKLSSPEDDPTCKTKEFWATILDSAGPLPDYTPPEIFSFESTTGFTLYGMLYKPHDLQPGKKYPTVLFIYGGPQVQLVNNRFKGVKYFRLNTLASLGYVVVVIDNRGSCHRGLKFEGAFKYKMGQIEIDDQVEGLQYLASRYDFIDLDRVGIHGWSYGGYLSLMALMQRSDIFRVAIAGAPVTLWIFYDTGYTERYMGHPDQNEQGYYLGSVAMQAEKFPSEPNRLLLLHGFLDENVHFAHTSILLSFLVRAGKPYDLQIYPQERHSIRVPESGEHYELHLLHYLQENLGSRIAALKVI
Procedure: as §1, §2
b. DPP-VIII enzyme bought from Bioscience, Catalog no. 80080;
as §3, §4, §5

DPP-IV [1] = biological target: T3, DPP-IV (Homo sapiens, UniProt P27487); settings: example 10 of PCT/CN2008/001936; cited from earlier work
T3 construct: purchased Calbiochem 317630
T3 sequence (P27487 whole entry): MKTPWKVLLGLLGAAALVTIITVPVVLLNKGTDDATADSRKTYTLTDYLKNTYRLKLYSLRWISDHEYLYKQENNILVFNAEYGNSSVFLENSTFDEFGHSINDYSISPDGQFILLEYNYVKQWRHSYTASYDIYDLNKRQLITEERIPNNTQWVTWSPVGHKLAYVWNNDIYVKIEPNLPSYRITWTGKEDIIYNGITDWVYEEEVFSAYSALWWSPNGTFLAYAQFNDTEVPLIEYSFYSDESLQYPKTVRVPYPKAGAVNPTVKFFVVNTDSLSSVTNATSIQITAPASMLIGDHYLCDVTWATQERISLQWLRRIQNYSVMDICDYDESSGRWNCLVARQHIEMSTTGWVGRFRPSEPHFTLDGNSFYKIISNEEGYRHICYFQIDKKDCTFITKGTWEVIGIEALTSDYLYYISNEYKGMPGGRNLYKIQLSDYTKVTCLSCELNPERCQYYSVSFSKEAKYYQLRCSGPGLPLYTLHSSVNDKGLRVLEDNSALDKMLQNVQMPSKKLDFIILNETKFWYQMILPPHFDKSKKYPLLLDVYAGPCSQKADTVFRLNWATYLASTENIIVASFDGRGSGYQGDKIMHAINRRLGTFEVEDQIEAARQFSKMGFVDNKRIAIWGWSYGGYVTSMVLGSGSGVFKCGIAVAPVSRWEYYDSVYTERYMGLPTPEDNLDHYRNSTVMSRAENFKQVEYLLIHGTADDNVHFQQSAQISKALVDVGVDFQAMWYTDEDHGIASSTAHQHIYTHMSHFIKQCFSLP

[2] = Pharmacokinetics assay in rats (LC/MS/MS plasma concentration); type: in vivo, SD rats; settings: for half-life / AUC(0-t) / CL/F / Cmax / MRT / Tmax / Vd/F: both sexes, SD, rat, plasma, po, 3 mg/kg, intragastric 3.0 mg/kg; for AUC(0-t): read-out: AUC0-t; for CL/F: read-out: CL/F (converted); for Cmax: read-out: Cmax; for MRT: read-out: MRT; for Tmax: read-out: Tmax; for Vd/F: read-out: Vz/F; for F: intragastric 3.0 mg/kg (as free base), absolute bioavailability from AUC0-t vs vein injection
Source text: The compound of Example 3 was administrated intragastrically or tail vein injection to rats and the compounds of Example 1-4, Example 9 and Example 11-12 were administrated intragastrically to determine the drug concentration in plasma at different time points by LC/MS/MS measurement. The pharmacokinetics of the compounds of the present invention was studied and evaluated in rats. And the oral absolute bioavailability was investigated.
Compounds of Example 1-4, Example 9 and Example 11-12.
[…] healthy adult SD rats, male and female in half, were purchased from SINO-BRITSH SIPPR/BK LAB.ANIMAL LTD., CO, License number: SCXK (Shanghai) 2008-0016.
Vein injection group: the proper weighed test compound was dissolved in 0.5 mL of DMSO by ultrasound and then diluted with normal saline to 15 mL to form a 0.3 mg/mL solution.
Intragastrically administered group: the proper weighed test compound was dissolved in 0.5% CMC-Na by ultrasound to form a 0.3 mg/mL of suspension.
32 healthy adult SD rats, male and female in half, were divided into 8 groups so that each group consisted 4 rats. After an overnight fast, the rats were tail vein injected of the compound of Example 3 and intragastrically administered the compound of Example 3 and the salt thereof, at a dose of 3.0 mg/kg (calculated as the free base form) and a volume of 10 mL/kg.
Blood samples (0.2 mL) of the rats in vein injection group were taken from eye socket at pre administration and at 2, 15, 30 minutes and 1.0, 2.0, 4.0, 6.0, 8.0, 12.0, 24.0 hours post administration, which were stored in heparinized tubes and centrifuged for 10 minutes at 3,500 rpm. The plasma samples were stored at −20° C. until analysis. The rats were fed 2 hours after administration.
Blood samples of the rats in intragastrically administered group were taken at pre administration and at 0.5, 1.0, 2.0, 3.0, 4.0, 6.0, 8.0, 12.0, 24.0 hours post administration. The samples were treated with the same method as mentioned above.
50 μL of internal standard solution and 150 μL of methanol were added to 50 μL of rat plasma obtained at various time points after administration. Then the mixture was mixed for 3 minutes using a vortexer and centrifuged for 10 minutes at 13,500 rpm. 10 μL of the supernatant was analyzed by LC/MS/MS.
The compartmental model of pharmacokinetics was fitted for the test compounds and the major pharmacokinetic parameters were calculated by DAS 2.0 software in which Cmax and tmax were the actually measured values. The absolute bioavailability was calculated by AUC0-t taken from post administration and vein injection.

[3] = Solubility experiment in four systems; type: physicochemical
Procedure: According to the conventional solubility measurement, the solubility of the test samples were determined in four different systems: phosphate buffer solution (PBS, pH=7.4), methanol, 0.1% hydrochloric acid and water.

DPP-IV [4] = biological target: T3, DPP-IV; assay: DPP-IV inhibition, Promega DPPIV-Glo Protease Assay; type: biochemical
Procedure: as §1, §2
a. DPP-IV enzyme bought from Calbiochem, Catalog no. 317630;
as §3, §4, §5

[5] = 0.1% hydrochloric acid, simulated gastric fluid, 0.1% hydrochloric acid, read-out: Solubility Value, 0.1% HCl
[6] = methanol, organic solvent or mixture, methanol, read-out: Solubility Value, methanol
[7] = phosphate buffer solution (PBS), pH 7.4, aqueous buffer, PBS pH 7.4, read-out: Solubility Value, PBS (pH 7.4)
[8] = water, read-out: Solubility Value, water

IC50 (DPP-IX) [µM]	IC50 (DPP-VIII) [µM]	half-life [2] [min]	AUC(0-t) [2] [ng·h/mL]	CL/F [2] [mL/min/kg]	Cmax [2] [ng/mL]	MRT [2] [h]	Tmax [2] [h]	Vd/F [2] [L/kg]	F [2] [%]	solubility [3, 5] [mg/mL]	solubility [3, 6] [mg/mL]	solubility [3, 7] [mg/mL]	solubility [3, 8] [mg/mL]	IC50 (DPP-IV [4]) [nM]	Compound	Hypoglycemic rate of blood sugar of 30 minutes after administration (normal ICR mice) [%]	inhibition activity against DPP-IV (in words) (DPP-IV [1])
63.6	87.9	104 ± 9.6	66.6 ± 19.5	760	18 ± 7.5	3.17 ± 0.36	2.5 ± 1	114 ± 27	2.90	17.2	31.3	18.6	20.9	–	Cl.N[C@@H](CC(=O)N1CCn2c(C(F)(F)F)nc(C(=O)O)c2C1)Cc1cc(F)c(F)cc1F [Example 1, (R)-7-[3-Amino-4-(2,4,5-trifluorophenyl)-butanoyl]-3-trifluoromethyl-5,6,7,8-tetrahydro-imidazo[1,5-a]pyrazine-1-carboxylic acid hydrochloride]	16.06	excellent inhibition activity
180	280	133 ± 41.4	69.5 ± 25.2	777	13.5 ± 3.9	4.5 ± 1.32	1.63 ± 1.11	140 ± 39	3.03	32.6	5.4	19.5	22.2	9	N[C@@H](CC(=O)N1CCn2c(C(F)(F)F)nc(C(=O)O)c2C1)Cc1cc(F)c(F)cc1F.O=C(O)C[C@H](O)C(=O)O [Example 11, (R)-7-[3-Amino-4-(2,4,5-trifluorophenyl)butanoyl]-3-trifluoromethyl-5,6,7,8-tetrahydro-imidazo[1,5-a]pyrazine-1-carboxylic acid (2S)-2-hydroxybutanedioic acid]	20.18	–
135	244	152 ± 51.6	74.6 ± 21.7	672	17 ± 6.9	4.23 ± 0.84	1.75 ± 0.5	154 ± 77	3.25	33.8	0.5	12.3	19.5	12	N[C@@H](CC(=O)N1CCn2c(C(F)(F)F)nc(C(=O)O)c2C1)Cc1cc(F)c(F)cc1F.O=C(O)C(O)C(O)C(=O)O [Example 12, (R)-7-[3-Amino-4-(2,4,5-trifluorophenyl)butanoyl]-3-trifluoromethyl-5,6,7,8-tetrahydro-imidazo[1,5-a]pyrazine-1-carboxylic acid (2S,3S)-2,3-dihydroxybutanedioic acid]	24.11	–
